# Measurements: paper PMC3201722 (NMR in biomedicine, 2011)
# pIC50: −log10 of the molar value.
# Target: T1, choline kinase (CK) [EC 2.7.1.32] (Saccharomyces cerevisiae, UniProt P20485)
# T1 sequence (P20485 2-582): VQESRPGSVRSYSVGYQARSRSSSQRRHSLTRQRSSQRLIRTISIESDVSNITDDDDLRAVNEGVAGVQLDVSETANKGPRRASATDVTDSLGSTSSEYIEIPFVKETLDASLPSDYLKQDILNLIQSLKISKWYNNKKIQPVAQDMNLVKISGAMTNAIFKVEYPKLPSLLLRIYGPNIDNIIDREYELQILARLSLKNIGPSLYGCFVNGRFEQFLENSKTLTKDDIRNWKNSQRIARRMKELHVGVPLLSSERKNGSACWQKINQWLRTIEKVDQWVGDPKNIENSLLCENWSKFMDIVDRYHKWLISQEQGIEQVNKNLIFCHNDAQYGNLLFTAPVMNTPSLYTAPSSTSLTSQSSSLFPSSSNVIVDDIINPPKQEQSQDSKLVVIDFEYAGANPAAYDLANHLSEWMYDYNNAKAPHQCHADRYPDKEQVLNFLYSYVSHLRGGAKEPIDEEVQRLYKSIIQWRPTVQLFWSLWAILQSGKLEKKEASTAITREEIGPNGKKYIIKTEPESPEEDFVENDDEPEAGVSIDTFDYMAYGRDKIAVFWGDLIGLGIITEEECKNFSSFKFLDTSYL
# Assay: 1H NMR
# Format: biochemical
structure (smiles),measurement,value
CN1CC[C@H](c2c(O)cc(O)c3c(=O)cc(-c4ccccc4Cl)oc23)[C@H](O)C1 [flavopiridol],pIC50,> 6.30
